Assay results from US12297349B2, “Transparent resin composition and transparent resin molded article” (Sony Group Corporation, priority 2016, dated 2025).

Assay: Dissolved amount (solubility) in pure water
Conditions: stirring for 30 minutes, filtering with 0.5 μm filter, insoluble matter measured
Method: The content of the water-insoluble organic sulfonic acid and/or the metal salt thereof is 0.01 to 3.0 pts·mass to 100 pts·mass of the aromatic polycarbonate resin. […] The dissolved amount per 100 g of pure water can be calculated by mixing 3 g of sample with 100 g of pure water, stirring for 30 minutes, and then filtering it with 0.5 μm filter to measure the insoluble matter.

| Compound | A dissolved amount (solubility) |
| --- | --- |
| O=S(=O)([O-])C(F)(F)C(F)(F)C(F)(F)C(F)(F)F.[K+] [b-2, potassium perfluorobutanesulfonate] | 4.6 g/100 g of pure water |
| Cc1ccc(S(=O)(=O)[O-])cc1.[Na+] [b-3, sodium paratoluenesulfonic acid] | 24.0 g/100 g of pure water |
